According to patent US9682111B2, “Method for preventing or treating neurodegenerative diseases” (priority 2012, dated 2017):

How the values were obtained:
[1] = system: Caenorhaditiselegans transgene strain CL4176 (expressing Aβ protein); assay: Paralysis of AD model elegans caused by Aβ (transgene strain CL4176); type: in vivo, Caenorhabditis elegans; conditions: 15° C. then 26° C., paralysis counted every three hours, blank control 49.503 ± 0.445
Experimental: Caenorhaditiselegans (Caenorhaditiselegans) transgene strain CL4176 (expressing Aβ protein under temperature inducing) were synchronized and cultured under 15° C. to L1 phase, and then added into coated OP50 microbial medium dishes containing the extracted drugs with different concentrations, at around 25/dish. Three dishes were used in one group. The dishes were cultured under 15° C. for 12 hours and then cultured under 26° C. 36 hours after the change of culturing temperature, the paralyses of the elegans were observed. Count every three hours until all the elegans was paralyzed.

[2] = system: pPD95.86::α-SYN transgenic C. elegans; assay: Lifespan of α-SYN transgenic C. elegans (anti-elegan aging experiment); type: in vivo, Caenorhabditis elegans; conditions: α-syn transgenic elegans on NGM plates with OP50, 20° C.; α-syn model 11.8 ± 3.66, N2 16 ± 5.68
Source text: pPD95.86::α-SYN transgenic C. elegans were establish by Sun et al. and preserved in the Department of Neurosurgery, the First Affiliated Hospital of Sun Yat-sen University, China. The method for establishing the α-SYN transgenic C. elegans was described in detail by Sun et al. (Toxic effect of Parkinson's disease gene α-Synuclein on Caenorhabditis elegants. New Medicine, 2013, 44 (4): 273-277.)
In brief, a wild-human α-SYN cDNA were amplified by PCR and inserted into the plasmid pPD95.86. Transgenic plasmids were isolated and injected into the gonad of synchronized N2 C. elegants at a concentration of 100 ng/μl. The transgenic F2 (second generation) worms was selected and then mutated under UV radiation. The UV treated F2 worms were backcrossed to wild type worms to generate stable α-SYN transgenic lines. The α-SYN transgenic lines express α-SYN and therefore have shorter life span and impaired motor functions.
A solution containing E. coli OP50, and biotae extracts and diterpenoid compounds of different concentrations are coated onto NGM plates. N2 elegans are synchronized to L4 phase under 20° C. Three plates are employed in one experimental group, and each plate includes about 25 elegans. The number of live elegans is recorded every day, and the elegans are transferred into a new NGM plate when the food is used up or there is mold contamination. The experiment pends till all the elegans are dead.

PC12 cells = assay: MPP+ induced injury of PC12 cells (PD model cells), MTT assay; type: cell-based, rat; parameters: Relative Cell Activity %: concentration or dose not given beside the values; conditions: PC12 cells with MPP+ and test substance, 24 hours; for average OD value: MTT assay, model group 1.061 ± 0.035, normal control 2.198 ± 0.046; for Relative Cell Activity %: MTT, normal control 100, model group 48.3
Experimental: PC12 cells (rat adrenal pheochromocytoma cell strain), which show many similar characters with dopaminergic neurons, was cultured in DMEM medium (which contains 5% horse serum, 5% fetal bovine serum, 100 U/mL penicillin, 100 µg/mL streptomycin), in an incubator under 37° C., saturated humidity, and 5% CO2. The medium was replaced every 2-3 days, and the cells were subcultured when the cells cover 70-80% area of the plate. Cells in log phase and under fine growth conditions were chosen, and inoculated in 96 well plate at 1-5×10^5 and 100 μl per well. After culturing under 37° C. for 24 hours and the cells adhere to the walls of the wells, MPP^+ medium was added to the model group, a medium containing MPP^+(1-methyl-4-phenylpyridinium) and semen biotae extracts/diterpenoid compounds were added to experimental group, and a medium with no drug was added to the blank control group. Then the media were continued to culture in the incubator for 24 hours. MTT assay was used to evaluate cell activity.

**Q.** With `C=CC(C)(O)C(O)CC1C(=C)CCC2C(C)(C(=O)O)CCCC12C` (stereo not shown) [12,13-Dihydroxylabda-8(17),14-dien-19-oic acid] as the compound, how does the “Average Living Time” value [1] read?
**A.** 51.008 ± 0.434 h

**Q.** And the “Living time” value [2]?
**A.** 14.15 ± 3.1 days

**Q.** `C=C[C@@](C)(O)CC[C@H]1C(=C)CC[C@@H]2[C@]1(C)CCC[C@]2(C)C(=O)O` [13-Epicupressic acid] was tested. Which “Average Living Time” value [1] did it give?
**A.** 54.015 ± 0.432 h

**Q.** And the “Living time” value [2]?
**A.** 13.7 ± 3.34 days

**Q.** How did the “Average Living Time” value [1] turn out when `C=C1CCC2C(C)(C(=O)O)CCCC2(C)C1CCC1=CC(OC)OC1=O` (stereo not shown) [15-Methoxypinusolidic acid] was run?
**A.** 55.012 ± 0.399 h

**Q.** What about the “Living time” value [2] of the same compound?
**A.** 13.55 ± 4.05 days

**Q.** Which results are given for `C=CC1(C)C=C2C=CC3C(C)(C(=O)O)CCCC3(C)C2CC1` (stereo not shown) [6,7-Dehydrosandarapimaric Acid]?
**A.** average OD value (PC12 cells): 1.435 ± 0.044; Relative Cell Activity % (PC12 cells): 65.3%; Average Living Time [1]: 52.435 ± 0.484 h; Living time [2]: 14.7 ± 2.7 days

**Q.** What does the source list for `C=C1CC[C@@H]2[C@](C)(CCC[C@]2(C)C(=O)O)[C@H]1CC[C@H](C)CCO` [Imbricatolic acid]?
**A.** Average Living Time [1]: 55.857 ± 0.428 h; Living time [2]: 14.25 ± 2.67 days

**Q.** For `C=C1CC[C@@H]2[C@](C)(CCC[C@]2(C)C(=O)O)[C@H]1CCC(C)=O` [1-Naphthalenecarboxylic acid, decahydro-1,4a-dimethyl-6-methylene-5-(3-oxobutyl)-, (1S,4aR,5S,8aR)-], which “average OD value” (PC12 cells) is on record?
**A.** 1.391 ± 0.038

**Q.** And the “Relative Cell Activity %” value (PC12 cells)?
**A.** 63.3%

**Q.** What about the “Average Living Time” value [1] of the same compound?
**A.** 50.991 ± 0.568 h

**Q.** What about the “Living time” value [2] of the same compound?
**A.** 14.35 ± 3.9 days

**Q.** `C=C1CCC2C(C)(C(=O)OC)CCCC2(C)C1C/C=C/C` (stereo not shown) [14,15-Bisnor-8(17),12E-labdadien-19-oic acid methyl ester] was tested. Which “average OD value” (PC12 cells) did it give?
**A.** 1.536 ± 0.035

**Q.** And the “Relative Cell Activity %” value (PC12 cells)?
**A.** 69.9%

**Q.** And the “Living time” value [2]?
**A.** 14.8 ± 3.24 days

**Q.** Which results are given for `C=C1CCC2C(C)(C(=O)O)CCCC2(C)C1CCC1=CC(O)OC1=O` (stereo not shown) [15-Hydroxypinusolidic acid]?
**A.** average OD value (PC12 cells): 1.585 ± 0.057; Relative Cell Activity % (PC12 cells): 72.1%; Average Living Time [1]: 51.575 ± 0.257 h; Living time [2]: 14.1 ± 4.68 days

**Q.** With `C=C[C@]1(C)C=C2CC[C@@H]3[C@](C)(CCC[C@@]3(C)C(=O)O)[C@H]2CC1` [Sandaracopimaric acid] as the compound, how does the “Average Living Time” value [1] read?
**A.** 53.616 ± 0.443 h

**Q.** What about the “Living time” value [2] of the same compound?
**A.** 15.85 ± 3.1 days

**Q.** How did the “average OD value” (PC12 cells) turn out when `C=C1CCC2C(C)(C(=O)O)CCCC2(C)C1C/C=C(\C)[C@@H](O)CO` (stereo partly drawn) [14(R),15-Dihydroxy-8(17),12(E)-labdadien-19-oic acid] was run?
**A.** 1.346 ± 0.059

**Q.** What about the “Relative Cell Activity %” value (PC12 cells) of the same compound?
**A.** 61.2%

**Q.** What about the “Living time” value [2] of the same compound?
**A.** 14.5 ± 3.76 days

**Q.** Which results are given for `C=C1CCC2C(C)(C(=O)O)CCCC2(C)C1CCCC(=O)O` (stereo not shown) [14,15-bisnor-8(17)-labdene-16,19-dioic acid]?
**A.** average OD value (PC12 cells): 1.292 ± 0.072; Relative Cell Activity % (PC12 cells): 58.8%; Average Living Time [1]: 51.892 ± 0.322 h; Living time [2]: 14.35 ± 3.38 days

**Q.** What does the source list for `C=C1CC[C@@H]2[C@](C)(CCC[C@]2(C)C(=O)OC)[C@H]1CCC1=CCOC1=O` [Pinusolide]?
**A.** Average Living Time [1]: 54.003 ± 0.287 h; Living time [2]: 15.6 ± 2.74 days

**Q.** Which results are given for `C=C1CC[C@@H]2[C@](C)(CCC[C@]2(C)C(=O)O)[C@H]1CCC1=CCOC1=O` [Pinusolidic acid]?
**A.** average OD value (PC12 cells): 1.224 ± 0.057; Relative Cell Activity % (PC12 cells): 55.7%; Living time [2]: 13.8 ± 3.37 days

**Q.** With Platyclolactonic Acid Methyl Ester as the compound, how does the “Average Living Time” value [1] read?
**A.** 51.393 ± 0.487 h

**Q.** What about the “Living time” value [2] of the same compound?
**A.** 14.3 ± 3.08 days

**Q.** For `C=C1CC[C@@H]2[C@](C)(CCC[C@]2(C)C(=O)O)[C@H]1CC/C(C)=C/CO` [Isocupressic acid], which “Average Living Time” value [1] is on record?
**A.** 53.879 ± 0.414 h

**Q.** And the “Living time” value [2]?
**A.** 14.85 ± 2.66 days

**Q.** How did the “Living time” value [2] turn out when `C=C1CC[C@@H]2[C@](C)(CCC[C@]2(C)C(=O)O)[C@H]1/C=C/C(C)=O` [1-Naphthalenecarboxylic acid, decahydro-1,4a-dimethyl-6-methylene-5-[(1E)-3-oxo-1-butenyl]-, (1S,4aS,5S,8aR)-] was run?
**A.** 14.75 ± 2.22 days

**Q.** What does the source list for `C=CC1(C)C=C2CCC3C(C)(CO)C(O)CCC3(C)C2CC1` (stereo not drawn) [Sandaracopimaradiene-3β,18-diol]?
**A.** average OD value (PC12 cells): 1.652 ± 0.015; Relative Cell Activity % (PC12 cells): 75.1%; Living time [2]: 14.05 ± 3.49 days

**Q.** How did the “average OD value” (PC12 cells) turn out when `CC(C)c1c(O)ccc2c1CCC1C2(C)C(=O)CC(O)C1(C)C` (stereo not drawn) [1-oxo-3β-hydroxytotarol] was run?
**A.** 1.448 ± 0.057

**Q.** And the “Relative Cell Activity %” value (PC12 cells)?
**A.** 65.9%

**Q.** And the “Average Living Time” value [1]?
**A.** 53.478 ± 0.357 h

**Q.** And the “Living time” value [2]?
**A.** 14.6 ± 3.63 days

**Q.** Which results are given for Isopinusolide?
**A.** Average Living Time [1]: 53.988 ± 0.320 h; Living time [2]: 13.9 ± 3.65 days

**Q.** For `C=C1CCC2C(C)(C(=O)O)CCCC2(C)C1CC1OCC=C1CC` (stereo not shown) [16-Methyl-12,15-epoxy-8(17),13-labdadien-19-oic acid], which “Average Living Time” value [1] is on record?
**A.** 54.336 ± 0.377 h

**Q.** What about the “Living time” value [2] of the same compound?
**A.** 13.95 ± 3.9 days

**Q.** What does the source list for `C=C1CCC2C(C)(C(=O)O)CCCC2(C)C1CC1(O)OCC(O)C1(C)O` (stereo not shown) [12,13,14-trihydroxylabda-12,15-epoxy-8(17)-en-19-oic acid]?
**A.** average OD value (PC12 cells): 1.404 ± 0.057; Relative Cell Activity % (PC12 cells): 63.9%; Living time [2]: 14 ± 3.67 days

**Q.** For Platyclolactonic Acid, which “Living time” value [2] is on record?
**A.** 13.95 ± 2.26 days

**Q.** Which results are given for `C=CC1(C)C=C2C(O)CC3C(C)(C(=O)O)CCCC3(C)C2CC1` (stereo not drawn) [7α-Hydroxysandaracopimaric acid]?
**A.** Average Living Time [1]: 53.067 ± 0.455 h; Living time [2]: 14.3 ± 3.01 days

**Q.** Which “Average Living Time” value [1] does the source give for `C=C1CCC2C(C)(C(=O)O)CCCC2(C)C1CC/C(=C\CO)CO` (stereo not shown) [15,16-Dihydroxy-8(17),13(E)-labdadien-19-oic acid] here?
**A.** 51.217 ± 0.397 h

**Q.** And the “Living time” value [2]?
**A.** 14.35 ± 2.62 days

**Q.** Which “average OD value” (PC12 cells) does the source give for `C=C[C@@](C)(O)CCC1C(=C)C(O)CC2C(C)(C(=O)O)CCCC12C` (stereo partly drawn) [7β,13S-dihydroxylabda-8(17),14-dien-19-oic acid] here?
**A.** 1.359 ± 0.045

**Q.** What about the “Relative Cell Activity %” value (PC12 cells) of the same compound?
**A.** 61.8%

**Q.** What about the “Living time” value [2] of the same compound?
**A.** 13.7 ± 2.85 days

**Q.** `C=C[C@@]1(C)CC[C@H]2C(=CC[C@@H]3[C@]2(C)CCC[C@@]3(C)C(=O)O)C1` [Isopimaric acid] was tested. Which “Average Living Time” value [1] did it give?
**A.** 52.785 ± 0.432 h

**Q.** What about the “Living time” value [2] of the same compound?
**A.** 14.9 ± 1.55 days

**Q.** What does the source list for `C=C1CC[C@@H]2[C@](C)(CCC[C@]2(C)C(=O)O)[C@H]1C/C=C(\C)C=O` [Naphthalenecarboxylic acid, decahydro-1,4a-dimethyl-6-methylene-5-[(2E)-3-methyl-4-oxo-2-butenyl]-, (1S,4aR,5S,8aR)-]?
**A.** average OD value (PC12 cells): 1.236 ± 0.085; Relative Cell Activity % (PC12 cells): 56.2%; Average Living Time [1]: 52.136 ± 0.415 h; Living time [2]: 14.4 ± 3.42 days
